# Where two headings read alike, the source gives them in different places.
# Tests used:
# Format in all cases: cell-based
# [1] = target: T1, IRAK4 (Homo sapiens, UniProt Q9NWZ3); assay: Western blot degradation of IRAK4; conditions: hPBMC Cell; 24 hours
# T1 construct: expression of target proteins in cells; endogenous in cells
# T1 sequence (Q9NWZ3 1-460): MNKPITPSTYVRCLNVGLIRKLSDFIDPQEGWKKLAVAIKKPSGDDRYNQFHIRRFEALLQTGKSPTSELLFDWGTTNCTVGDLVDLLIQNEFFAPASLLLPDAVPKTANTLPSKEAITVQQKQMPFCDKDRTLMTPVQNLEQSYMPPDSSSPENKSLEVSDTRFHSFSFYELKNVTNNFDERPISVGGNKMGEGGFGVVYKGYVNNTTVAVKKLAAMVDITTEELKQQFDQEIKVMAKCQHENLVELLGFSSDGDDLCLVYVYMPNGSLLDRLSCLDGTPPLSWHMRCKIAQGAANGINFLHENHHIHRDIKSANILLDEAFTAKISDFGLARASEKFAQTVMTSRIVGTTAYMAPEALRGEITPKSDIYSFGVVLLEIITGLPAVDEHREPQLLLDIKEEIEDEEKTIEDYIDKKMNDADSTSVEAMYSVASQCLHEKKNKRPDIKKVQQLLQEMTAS
# Procedure: Conventional Western blot assay was performed to evaluate the effects of the compounds of the present disclosure on the expression of target proteins in cells.
# (1) Cell Seeding and Protein Harvesting: The selected cells were processed according to the cell seeding procedure and protein harvesting procedure in Table II-2.
# (2) To the collected supernatant, 5×SDS sample loading buffer was added, followed by denaturation at 95 °C for 5 minutes. The denatured samples were then separated by SDS-PAGE electrophoresis on a polyacrylamide gel. Proteins were transferred to a nitrocellulose membrane (0.45 μm NC membrane), blocked with blocking buffer at room temperature for 1 hour, and subjected to antibody incubation and development procedures according to the antibody manufacturer's instructions (Cell Signaling Technology).
# Half-Maximal Degradation Concentration value (the drug concentration required for degrading proteins by 50%, abbreviated as DC50) reads method: comparing the grayscale values of Western blot bands from drug-treated samples with those from blank DMSO-treated controls, and identifying the drug concentration range at which the grayscale value is half that of the DMSO-treated control bands.
# DC50 values can be calculated using ImageJ software to measure grayscale values of Western blot bands from drug-treated samples. The concentration-response curve is fitted to estimate the drug concentration corresponding to half the grayscale value.
# Target protein remaining (%) refers to the percentage of target protein remaining in cells after treatment with protein degrader compounds.
# Calculation method for target protein remaining (%): Use ImageJ software to measure grayscale values of Western blot bands from drug (protein degrader)-treated samples. The grayscale value of drug-treated bands is divided by that of internal control protein bands, and the resulting quotient is normalized to obtain the relative percentage of remaining target protein after protein degrader treatment.
# Target protein degradation rate (%)=1−target protein remaining (%).
# [2] = system: Human Acute T Lymphoblastic Leukemia Cells (Molt-4); assay: Inhibition of Molt-4 cell proliferation (CellTiter luminescent viability); conditions: Homo sapiens; for inhibition at 0.01 µM: read-out: Inhibition Rate at 10 nM (%); for inhibition at 0.5 µM: read-out: Inhibition Rate at 500 nM (%)
# Procedure: (§1) The tumor cells used herein were cultured in a cell culture medium listed in table 3 at 37 °C in an incubator with 5% CO2. Prior to experimentation, all cell lines used were correctly identified by STR profiling, and tested negative for mycoplasma contamination using a mycoplasma detection kit through routine screenings.
# (§2) The IC50 values of the compounds of the present disclosure (including the compounds in Table 1, Table 2, and Examples 1-468) were determined using the CellTiter-Meiluncell Luminescent Cell Viability Assay Kit from Dalian Meilun Biotech Co., Ltd. The detailed procedure is as follows: Tumor cells were seeded in 96-well cell culture plates at the densities specified in Table 4. On the following day, the test compounds of the present disclosure were subjected to serial dilution. The dilution can be performed according to one of the following two methods: • (1) The first dilution method: The test compounds of the present disclosure (including the compounds in Table 1, Table 2, and Examples 1-468) were subjected to 5-fold serial dilutions starting from a highest concentration of 2000 μM, resulting in a total of 9 concentrations from high to low (2000, 400, 80, 16, 3.2, 0.64, 0.128, 0.0256, 0.00512 μM). Subsequently, 0.5 μL of the test compound dilution was transferred into the 96-well plate containing the cells, with each well containing 100 μL of cell culture medium. […] Into the 96-well plate, the diluted test compounds and corresponding detection reagents were added, resulting in final test compound concentrations of 500 nM and 10 nM, respectively. The experimental procedure is described below using the diluted 2 μM test compound as an example.
# (§3) 0.5 μL of the aforementioned diluted compound of the present disclosure (including the compounds in Table 1, Table 2, and Examples 1-468) was added to the seeded cells in 100 μL of medium, yielding a final test compound concentration of 10 nM. After the cells were treated with the compounds of the present disclosure for a specified period, the cell viability assay reagent was added to the culture medium according to the kit's instructions to determine cell viability. […] All controls were treated using the same procedure as the compounds of the present disclosure. The growth inhibition curves for the compounds of the present disclosure were plotted using Prism GraphPad software, and the IC50 values were calculated therefrom.
# [3] = system: Human Multiple myeloma cell line (MM.1S); assay: Inhibition of MM.1S cell proliferation (CellTiter luminescent viability); conditions: Homo sapiens, MM1.S, Table IA5, IRAK4 inhibitor-based, 96 hours
# Procedure: as §1, §2, §3
# [4] = MOLT-4, 96 h, Table IA2, IRAK4 inhibitor-based, Molt-4, 10 nM, 96 hours
# [5] = MOLT-4, 96 h, Table IA2, IRAK4 inhibitor-based, Molt-4, 500 nM, 96 hours
# [6] = MOLT-4, Molt-4, 10 nM, Table IN3
# [7] = MOLT-4, Molt-4, 500 nM, Table IN3
Structure (SMILES),Degradation of substrate protein IRAK4 (substrate protein remaining %) [1],"inhibition at 0.01 µM [2, 4]","inhibition at 0.5 µM [2, 5]",other results
"COc1cc2nn([C@H]3CC[C@H](CN4CC5CCC(C4)N5c4ccc5c(c4)C(=O)N(N4CCC(=O)NC4=O)C5=O)CC3)cc2cc1NC(=O)c1cccc(C(F)(F)F)c1 [GT-08665, N-(2-((1r,4r)-4-((8-(2-(2,4-dioxotetrahydropyrimidin-1(2H)-yl)-1,3-dioxoisoindolin-5-yl)-3,8-diazabicyclo[3.2.1]octan-3-yl)methyl)cyclohexyl)-6-methoxy-2H-indazol-5-yl)-3-(trifluoromethyl)benzamide]",,15 to 20%,15 to 20%,
"C[C@@H]1CNC(=O)c2cc3ccc(C(=O)Nc4cnn(Cc5ccc(N6CCC(N7CCN(CC8CCN(c9cccc%10c9C(=O)N(N9CCC(=O)NC9=O)C%10=O)CC8)CC7)CC6)cc5)c4)nc3n21 [GT-08344, (R)—N-(1-(4-(4-(4-((1-(2-(2,4-dioxotetrahydropyrimidin-1(2H)-yl)-1,3-dioxoisoindolin-4-yl)piperidin-4-yl)methyl)piperazin-1-yl)piperidin-1-yl)benzyl)-1H-pyrazol-4-yl)-9-methyl-6-oxo-6,7,8,9-tetrahydropyrido[3′,2′: 4,5]pyrrolo[1,2-a]pyrazine-2-carboxamide]",,,,"inhibition at 0.01 µM [2, 6]: 5 to 10%; inhibition at 0.5 µM [2, 7]: 80 to 100%"
"Cn1c(=O)n(C2CCC(=O)NC2=O)c2cccc(C#CCOC3CCN(C[C@H]4CC[C@H](n5cc(NC(=O)c6cnn7ccc(N8C[C@H]9C[C@@H]8CO9)nc67)c(C(F)F)n5)CC4)CC3)c21 (stereo partly shown) [KT-474, reference compound]",,7 to 10%,7 to 10%,"inhibition at 0.01 µM ([3]; 10 nM, read-out: Inhibition Rate at 10 nM (%)): 5 to 10%; inhibition at 0.5 µM ([3]; 500 nM, read-out: Inhibition Rate at 500 nM (%)): 15 to 20%"
"Cc1cc(-c2nc(C(=O)Nc3cc4oc(N5CCOCC5)nc4nc3N3CC[C@@H](O)C3)co2)ccn1 [emavusertib, Emavusertib, reference compound]",,3 to 7%,0 to 3%,
"C[C@@H]1CNC(=O)c2cc3ccc(C(=O)Nc4cnn(Cc5ccc(N6CCC(N7CCN(CC8CCN(c9ccc%10c(c9)C(=O)N(N9CCC(=O)NC9=O)C%10=O)CC8)CC7)CC6)cc5)c4)nc3n21 [GT-08343, (R)—N-(1-(4-(4-(4-((1-(2-(2,4-dioxotetrahydropyrimidin-1(2H)-yl)-1,3-dioxoisoindolin-5-yl)piperidin-4-yl)methyl)piperazin-1-yl)piperidin-1-yl)benzyl)-1H-pyrazol-4-yl)-9-methyl-6-oxo-6,7,8,9-tetrahydropyrido[3′,2′: 4,5]pyrrolo[1,2-a]pyrazine-2-carboxamide]",,,,"inhibition at 0.01 µM ([2]; MOLT-4, Molt-4, 10 nM, Table IN2): 20 to 30%; inhibition at 0.01 µM [2, 6]: 30 to 40%; inhibition at 0.5 µM ([2]; MOLT-4, Molt-4, 500 nM, Table IN2): 30 to 50%; inhibition at 0.5 µM [2, 7]: 60 to 70%"

# Second part, led by results:
Degradation of substrate protein IRAK4 (substrate protein remaining %) [1],Structure (SMILES),"inhibition at 0.01 µM [2, 4]","inhibition at 0.5 µM [2, 5]",other results
A (0%≤substrate protein remaining %≤80%),"COc1cc2nn([C@H]3CC[C@H](CN4C[C@@H]5C[C@H]4CN5c4ccc5c(c4)C(=O)N(N4CCC(=O)NC4=O)C5=O)CC3)cc2cc1NC(=O)c1cccc(C(F)(F)F)c1 [GT-08662, N-(2-((1S,4r)-4-(((1S,4S)-5-(2-(2,4-dioxotetrahydropyrimidin-1(2H)-yl)-1,3-dioxoisoindolin-5-yl)-2,5-diazabicyclo[2.2.1]heptan-2-yl)methyl)cyclohexyl)-6-methoxy-2H-indazol-5-yl)-3-(trifluoromethyl)benzamide]",,,
A (0%≤substrate protein remaining %≤80%),"COc1cc2nn([C@H]3CC[C@H](CN4CCN(c5cc(F)c6c(c5)C(=O)N(N5CCC(=O)NC5=O)C6=O)CC4)CC3)cc2cc1NC(=O)c1cccc(C(F)(F)F)c1 [GT-08670, N-(2-((1r,4r)-4-((4-(2-(2,4-dioxotetrahydropyrimidin-1(2H)-yl)-7-fluoro-1,3-dioxoisoindolin-5-yl)piperazin-1-yl)methyl)cyclohexyl)-6-methoxy-2H-indazol-5-yl)-3-(trifluoromethyl)benzamide]",,,
A (0%≤substrate protein remaining %≤80%),"COc1cc2nn(C3CCN(CC4CCN(c5ccc6c(c5)C(=O)N(N5CCC(=O)NC5=O)C6=O)CC4)CC3)cc2cc1NC(=O)c1cccc(C(F)(F)F)c1 [GT-04877, N-(2-(1-((1-(2-(2,4-dioxotetrahydropyrimidin-1(2H)-yl)-1,3-dioxoisoindolin-5-yl)piperidin-4-yl)methyl)piperidin-4-yl)-6-methoxy-2H-indazol-5-yl)-3-(trifluoromethyl)benzamide]",,,
A (0%≤substrate protein remaining %≤80%),"CC(C)(O)c1cc2nn(C3CCN(CC4CCN(c5ccc6c(c5)C(=O)N(N5CCC(=O)NC5=O)C6=O)CC4)CC3)cc2cc1NC(=O)c1cccc(C(F)(F)F)n1 [GT-05220, N-(2-(1-((1-(2-(2,4-dioxotetrahydropyrimidin-1(2H)-yl)-1,3-dioxoisoindolin-5-yl)piperidin-4-yl)methyl)piperidin-4-yl)-6-(2-hydroxypropan-2-yl)-2H-indazol-5-yl)-6-(trifluoromethyl) picolinamide]",,,
A (0%≤substrate protein remaining %≤80%),"O=C1CCN(N2C(=O)c3ccc(N4CC5CC(C4)N5C[C@H]4CC[C@H](n5cc(NC(=O)c6cnn7ccc(N8C[C@H]9C[C@@H]8CO9)nc67)c(C(F)F)n5)CC4)cc3C2=O)C(=O)N1 [GT-05822, 5-((1R,4R)-2-oxa-5-azabicyclo[2.2.1]heptan-5-yl)-N-(3-(difluoromethyl)-1-((1r,4R)-4-((3-(2-(2,4-dioxotetrahydropyrimidin-1(2H)-yl)-1,3-dioxoisoindolin-5-yl)-3,6-diazabicyclo[3.1.1]heptan-6-yl)methyl)cyclohexyl)-1H-pyrazol-4-yl)pyrazolo[1,5-a]pyrimidine-3-carboxamide]",,,

# — patent US20260364184A1, “COMPOUND BASED ON OXOISOINDOLINYL-SUBSTITUTED TETRAHYDROPYRIMIDINE-DIONE AND USE THEREOF” (GLUETACS THERAPEUTICS (SHANGHAI) CO., LTD., priority 2023, published 2026)
